Data taken from ChEMBL document CHEMBL5143560, “Rational drug design to explore the structure-activity relationship (SAR) of TRK inhibitors with 2,4-diaminopyrimidine scaffold” (Eur J Med Chem, 2022).

Tests used:
[1] = Metabolic stability in human microsomes assessed as intrinsic clearance in presence of NADPH by LC-MS/MS analysis; type: ADME, Microsome
[2] = Stability of the compound in human plasma assessed as remaining compound measure after 10 mins by LC-MS/MS analysis; type: ADME, cell-free
[3] = AUClast in Sprague-Dawley rat at 3 mg/kg, po by LC-MS/MS analysis; type: ADME, organism-based; parameters: time 0 - last, dose 3 mg/kg, route po; conditions: in vivo
[4] = AUCinfinity in Sprague-Dawley rat at 1 mg/kg, iv by LC-MS/MS analysis; type: ADME, organism-based; parameters: time infinity, dose 1 mg/kg, route iv; conditions: in vivo
[5] = Stability of the compound in human plasma assessed as remaining compound measure after 60 mins by LC-MS/MS analysis; type: ADME, cell-free; conditions: read-out: Stability
[6] = Half life in Sprague-Dawley rat at 1 mg/kg, iv by LC-MS/MS analysis; type: ADME, organism-based; conditions: in vivo
[7] = Stability of the compound in human plasma assessed as remaining compound measure after 120 mins by LC-MS/MS analysis; type: ADME, cell-free; conditions: read-out: Stability
[8] = Stability of the compound in human plasma assessed as half life by LC-MS/MS analysis; type: ADME, cell-free
[9] = Oral bioavailability in Sprague-Dawley rat at 3 mg/kg by LC-MS/MS analysis; type: ADME, organism-based; conditions: in vivo
[10] = Cmax in Sprague-Dawley rat at 3 mg/kg, po by LC-MS/MS analysis; type: ADME, organism-based; parameters: dose 3 mg/kg, route po; conditions: in vivo
[11] = Metabolic stability in human liver microsomes assessed as parent compound remaining measured at 60 min in presence of NADPH by LC-MS/MS analysis; type: ADME, Microsome; conditions: read-out: Stability
[12] = MRT in Sprague-Dawley rat at 1 mg/kg, iv by LC-MS/MS analysis; type: ADME, organism-based; conditions: in vivo
[13] = Metabolic stability in human liver assessed as intrinsic clearance in presence of NADPH by LC-MS/MS analysis; type: ADME, tissue-based; conditions: read-out: CLH
[14] = Metabolic stability in human liver microsomes assessed as half life in presence of NADPH by LC-MS/MS analysis; type: ADME, Microsome
[15] = MRT in Sprague-Dawley rat at 3 mg/kg, po by LC-MS/MS analysis; type: ADME, organism-based; conditions: in vivo
[16] = Stability of the compound in human plasma assessed as remaining compound measure after 30 mins by LC-MS/MS analysis; type: ADME, cell-free; conditions: read-out: Stability
[17] = AUClast in Sprague-Dawley rat at 1 mg/kg, iv by LC-MS/MS analysis; type: ADME, organism-based; parameters: time 0 - last, dose 1 mg/kg, route iv; conditions: in vivo
[18] = Metabolic stability in human liver microsomes assessed as parent compound remaining measured at 60 min in absence of NADPH by LC-MS/MS analysis; type: ADME, Microsome; conditions: read-out: Stability
[19] = Volume of distribution at steady state in Sprague-Dawley rat at 1 mg/kg, iv by LC-MS/MS analysis; type: ADME, organism-based; conditions: in vivo, read-out: Vdss
[20] = Tmax in Sprague-Dawley rat at 3 mg/kg, po by LC-MS/MS analysis; type: ADME, organism-based; conditions: in vivo

O=C(N[C@@H]1CCCNC1)c1cccc(Nc2ncc(Cl)c(NCc3cccc(F)c3)n2)c1
CLint scaled [1]: < 9.6 mL/min/kg
Stability [2]: 84%
AUC(0-t) [3]: 188 ng·h/mL
AUC [4]: 386 ng·h/mL
remaining at 1 h [5]: 90.5%
half-life [6]: 3.4 h
remaining at 2 h [7]: 103%
half-life [8]: > 4.82 h
bioavailability [9]: 17.4%
Cmax [10]: 33.6 ng/mL
remaining at 1 h [11]: 90.2%
MRT [12]: 3.96 h
CLint scaled [13]: < 8.6 mL/min/kg
half-life [14]: > 2.42 h
MRT [15]: 3.49 h
remaining at 0.5 h [16]: 90.1%
AUC(0-t) [17]: 325 ng·h/mL
remaining at 1 h [18]: 96%
Vd [19]: 31 L/kg
Tmax [20]: 4 h
